Measured values: PubChem BioAssay (NCI)
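96-well plates; 48 h exposure; 5 concentrations. Endpoints by linear interpolation between flanking doses. Not reached: highest tested concentration assigned. Here, GI50 denotes the concentration required for 50% inhibition of growth. The concentration for full growth arrest is given as TGI.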

Assays:
Assay in all cases: NCI anticancer screen, dose series, 48 h
DU-145 prostate = system: DU-145 prostate
HCC-2998 colon = system: HCC-2998 colon
IGROV1 ovarian = system: IGROV1 ovarian
MCF7 breast = system: MCF7 breast
NCI-H522 lung = system: NCI-H522 lung
OVCAR-8 ovarian = system: OVCAR-8 ovarian
PC-3 prostate = system: PC-3 prostate
RXF 393 renal = system: RXF 393 renal
SK-MEL-28 melanoma = system: SK-MEL-28 melanoma
SK-MEL-5 melanoma = system: SK-MEL-5 melanoma

Row | SMILES | TGI (DU-145 prostate) [µM] | TGI (HCC-2998 colon) [µM] | TGI (IGROV1 ovarian) [µM] | TGI (MCF7 breast) [µM] | TGI (NCI-H522 lung) [µM] | TGI (OVCAR-8 ovarian) [µM] | TGI (PC-3 prostate) [µM] | TGI (RXF 393 renal) [µM] | TGI (SK-MEL-28 melanoma) [µM] | TGI (SK-MEL-5 melanoma) [µM] | GI50 (DU-145 prostate) [µM] | GI50 (HCC-2998 colon) [µM] | GI50 (IGROV1 ovarian) [µM] | GI50 (NCI-H522 lung) [µM] | GI50 (OVCAR-8 ovarian) [µM] | GI50 (PC-3 prostate) [µM] | GI50 (RXF 393 renal) [µM] | GI50 (SK-MEL-28 melanoma) [µM] | GI50 (SK-MEL-5 melanoma) [µM]
1 | OC(CCN1CCN(CCOC(c2ccc(F)cc2)c2ccc(F)cc2)CC1)c1ccc(Br)cc1 (stereo not given) | 17.4 | 3.53 | 16.1 | 9.85 | 16.4 | 4.1 | 17.8 | 10 | 7.9 | 3.3 |  |  |  |  |  |  |  |  | 
2 | COc1ccc2c(c1)-c1nc(=S)n(CCN(C)C)c3ccc([N+](=O)[O-])c(c13)N2 | 2.93 | 2.15 | 2.55 | 3.43 | 2.04 | 2.2 | 4.36 | 3.3 | 2.88 | 7.61 |  |  |  |  |  |  |  |  | 
3 | O=C1c2cc3c(cc2-c2c1c1cc(F)c(F)cc1c(=O)n2C[C@H](O)CO)OCO3 | > 100 | 11.2 | > 100 |  | 0.48 | > 100 | > 100 | 0.335 | 7.15 | 0.116 | 0.0407 | 0.14 | 0.182 | 0.0232 | 0.0724 | 0.127 | 0.121 | 0.28 | 0.0307
4 | Fc1ccc(OCc2ccc3nc(-c4ccccc4)c(Cl)nc3c2)cc1 | > 100 | > 100 | 74.3 | > 100 | 24.4 | > 100 | > 100 |  | > 100 | > 100 |  |  |  |  |  |  |  |  | 
5 | CSc1ncnc2c1cnn2Cc1cn(COCC(O)CO)nn1 (stereo not given) | > 100 | > 100 | > 100 | > 100 | 44.6 | > 100 | > 100 |  | > 100 | > 100 |  |  |  |  |  |  |  |  | 
6 | C[C@@](Br)(C(=O)O)[C@H](Br)C(=O)O | > 100 | > 100 | > 100 | > 100 |  | > 100 | > 100 | > 100 | > 100 | > 100 |  |  |  |  |  |  |  |  | 
7 | CC(C)NC(=O)OCc1c(COC(=O)NC(C)C)n(C)c2c1ccc1cc(Cl)c(Cl)cc12 |  |  | 22.2 | 14.9 | 13.1 | 23.8 | 29 | 25 |  | 30.1 |  |  |  |  |  |  |  |  | 
8 | O/N=C/[C@H]1COC2(CCCCC2)O1 | > 100 |  | > 100 | > 100 |  | > 100 | > 100 |  | > 100 | > 100 |  |  |  |  |  |  |  |  | 
9 | CCOP(=O)(CC1OC(CO)C(O)C1O)OCC (stereo not given) | > 100 | > 100 | > 100 | > 100 | > 100 |  | > 100 | > 100 | > 100 | > 100 |  |  |  |  |  |  |  |  | 
10 | O=c1ccn([C@@H]2C=C(CO)[C@@H](O)[C@H]2O)c(=O)[nH]1 |  | > 625 | > 625 | > 625 | > 625 | > 625 |  | > 625 | > 625 | > 625 |  |  |  |  |  |  |  |  | 
11 | Cc1ccc(S(=O)(=O)N2CCc3cc(O)c([N+](=O)[O-])cc32)cc1 | > 100 |  | > 100 | > 100 | > 100 | > 100 | > 100 | > 100 | > 100 | > 100 |  |  |  |  |  |  |  |  | 
12 | CCC(C)C(NC(=O)C(CCCC[N+](=N)N)NC(=O)C(CCCC[N+](=N)N)NC(=O)c1ccc(OC)cc1)C(=O)NC(CCCC[N+](=N)N)C(=O)N1CCCC1C(=O)NC(CCCCN)C(=O)NC(CC(C)C)C(N)=O (stereo not given) | > 100 | > 100 |  | > 100 | > 100 | > 100 | > 100 | > 100 | > 100 | > 100 |  |  |  |  |  |  |  |  | 
13 | CC(=O)Nc1ccc2c(c1)nc1c3ccccc3ccn21 | > 100 |  | > 100 | > 100 | > 100 | > 100 | > 100 | > 100 | > 100 | > 100 |  |  |  |  |  |  |  |  | 
14 | CCC1(c2ccc(OC)c(OC)c2)CCN2C(=O)C(O)CC21 (stereo not given) | > 100 | > 100 | > 100 | > 100 | > 100 |  | > 100 | > 100 | > 100 | > 100 |  |  |  |  |  |  |  |  | 
15 | CO[C@H](C)[C@](O)(C(=O)OCC1=CCN2CC[C@@H](O)[C@H]12)C(C)C | > 100 | > 100 | > 100 | > 100 | > 100 | > 100 | > 100 |  | > 100 | > 100 |  |  |  |  |  |  |  |  | 
16 | O=c1[nH]nc(-c2ccc([N+](=O)[O-])cc2)[nH]1 | > 100 | > 100 | > 100 | > 100 | > 100 | > 100 | > 100 | > 100 | > 100 |  |  |  |  |  |  |  |  |  | 
